In patent US20250268903A1, “RXFP1 AGONISTS” (BRISTOL-MYERS SQUIBB COMPANY, priority 2021, published 2025):

Each compound was assayed against T1, human RXFP1 (Homo sapiens, UniProt Q9HBX9) (assay: hRXFP1 HEK293 cAMP assay (HTRF)). Conditions: HEK293 cells stably expressing human RXFP1, 30 min at room temperature.
T1 construct: expressed in transfected cells
T1 sequence (Q9HBX9 1-757): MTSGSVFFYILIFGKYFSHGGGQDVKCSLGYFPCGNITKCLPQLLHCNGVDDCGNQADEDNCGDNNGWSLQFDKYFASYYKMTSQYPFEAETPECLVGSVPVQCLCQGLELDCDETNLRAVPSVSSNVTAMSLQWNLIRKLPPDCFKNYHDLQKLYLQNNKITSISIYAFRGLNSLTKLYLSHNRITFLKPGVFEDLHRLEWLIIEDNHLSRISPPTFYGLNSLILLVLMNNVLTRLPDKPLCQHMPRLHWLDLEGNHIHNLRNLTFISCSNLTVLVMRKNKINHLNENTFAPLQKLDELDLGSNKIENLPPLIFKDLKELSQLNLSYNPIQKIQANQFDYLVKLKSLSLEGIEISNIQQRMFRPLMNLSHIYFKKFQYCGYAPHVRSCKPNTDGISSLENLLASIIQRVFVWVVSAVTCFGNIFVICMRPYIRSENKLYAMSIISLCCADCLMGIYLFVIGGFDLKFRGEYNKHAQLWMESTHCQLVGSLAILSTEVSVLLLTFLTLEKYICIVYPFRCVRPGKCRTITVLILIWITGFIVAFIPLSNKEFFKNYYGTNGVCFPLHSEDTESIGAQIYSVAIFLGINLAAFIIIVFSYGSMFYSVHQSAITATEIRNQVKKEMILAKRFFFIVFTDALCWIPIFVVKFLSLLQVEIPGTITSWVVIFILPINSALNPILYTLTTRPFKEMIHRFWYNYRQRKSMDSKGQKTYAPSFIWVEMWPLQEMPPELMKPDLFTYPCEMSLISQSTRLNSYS
Type: cell-based
In short: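 Potency and activity come from a four-parameter logistic fit of cAMP against compound concentration, tested from 0.010 nM up to 50 μM. The assay uses HEK293 cells stably expressing human RXFP1, incubated 30 min at ambient temperature with phosphodiesterase inhibitor IBMX present.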
For `COc1ccc(S(=O)(=O)N2CCO[C@@H](CO)C2)cc1C(=O)NC1C2CCC(/C2=C/C(F)(F)F)[C@@H]1C(=O)Nc1ccc(F)c(C(F)(F)F)c1` (stereo partly drawn) [Example 200, (2S,3R,7Z)-N-[4-fluoro-3-(trifluoromethyl)phe-nyl]-3-(5-{[(2R)-2-(hydroxymethyl)mor-pholin-4-yl]sulfonyl}-2-methoxybenzamido)-7-(2,2,2-trifluoroethylidene)bi-cyclo[2.2.1]heptane-2-carboxamide], the EC50 was 203 nM.
For `COc1ccc(S(=O)(=O)N2CCO[C@@H](CO)C2)cc1C(=O)NC1C2CCC(/C2=C/C2CC2)[C@@H]1C(=O)Nc1ccc(F)c(C(F)(F)F)c1` (stereo partly drawn) [Example 201, (2S,3R,7Z)-7-(cyclopropylmethyli-dene)-N-[4-fluoro-3-(trifluoromethyl)phe-nyl]-3-(5-{[(2R)-2-(hydroxymethyl)mor-pholin-4-yl]sulfonyl}-2-methoxybenzamido) bicyclo[2.2.1]heptane-2-carboxamide], the EC50 was 14 nM.
In the case of `COc1ccc(S(=O)(=O)N2CCS(=O)(=O)CC2)cc1C(=O)NC1C2CCC(/C2=C/C(F)(F)F)[C@@H]1C(=O)Nc1ccc(F)c(C(F)(F)F)c1` (stereo partly drawn) [Example 202, (2S,3R,7Z)-3-{5-[(1,1-dioxo-1λ^6-thiomorpholin-4-yl)sulfonyl]-2-methoxybenzamido}-N-[4-fluoro-3-(trifluoromethyl)phe-nyl]-7-(2,2,2-trifluoroethylidene)bi-cyclo[2.2.1]heptane-2-carboxamide], the EC50 is reported as 186 nM.
`COc1ccc(S(=O)(=O)N2CCNCC2)cc1C(=O)NC1C2CCC(/C2=C/C(F)(F)F)[C@@H]1C(=O)Nc1ccc(F)c(C(F)(F)F)c1` (stereo partly drawn) [Example 203, (2S,3R,7Z)-N-[4-fluoro-3-(trifluoromethyl)phe-nyl]-3-[2-methoxy-5-(piperazine-1-sulfonyl)benzamido]-7-(2,2,2-trifluoroethylidene)bi-cyclo[2.2.1]heptane-2-carboxamide] gave an EC50 of 858 nM.
In the case of `COc1ccc(S(=O)(=O)N2CCN[C@@H](CO)C2)cc1C(=O)NC1C2CCC(/C2=C/C(F)(F)F)[C@@H]1C(=O)Nc1ccc(F)c(C(F)(F)F)c1` (stereo partly drawn) [Example 204, (2S,3R,7Z)-N-[4-fluoro-3-(trifluoromethyl)phe-nyl]-3-(5-{[(3R)-3-(hydroxymethyl)piper-azin-1-yl]sulfonyl}-2-methoxybenzamido)-7-(2,2,2-trifluoroethylidene)bi-cyclo[2.2.1]heptane-2-carboxamide], the EC50 is reported as 341 nM.
`COc1ccc(S(=O)(=O)N2CC3COCC3C2)cc1C(=O)NC1C2CCC(/C2=C/C(F)(F)F)[C@@H]1C(=O)Nc1ccc(F)c(C(F)(F)F)c1` (stereo partly drawn) [Example 205, (2S,3R,7Z)-N-[4-fluoro-3-(trifluoromethyl)phe-nyl]-3-(5-{hexahydro-1H-furo[3,4-c]pyrrole-5-sulfonyl}-2-methoxybenzamido)-7-(2,2,2-trifluoroethylidene)bi-cyclo[2.2.1]heptane-2-carboxamide] gave an EC50 of 611 nM.
In the case of `COc1ccc(S(=O)(=O)Nc2nnn[nH]2)cc1C(=O)NC1C2CCC(/C2=C/C(F)(F)F)[C@@H]1C(=O)Nc1ccc(F)c(C(F)(F)F)c1` (stereo partly drawn) [Example 206, (2S,3R,7Z)-N-[4-fluoro-3-(trifluoromethyl)phe-nyl]-3-{2-methoxy-5-[(1H-1,2,3,4-tetrazol-5-yl)sulfamoyl]benza-mido}-7-(2,2,2-trifluoroethylidene)bi-cyclo[2.2.1]heptane-2-carboxamide], the EC50 is reported as 3050 nM.
`COc1ccc(S(N)(=O)=O)cc1C(=O)N[C@@H]1C2CCC(C2=C(C)C)[C@@H]1C(=O)Nc1ccc(F)c(C(F)(F)F)c1` (stereo partly drawn) [Example 207, (2S,3R)-N-[4-fluoro-3-(trifluoromethyl)phenyl]-3-(2-methoxy-5-sulfamoylbenzamido)-7-(propan-2-ylidene)bicyclo[2.2.1] heptane-2-carboxamide] was tested, and the EC50 was 890 nM.
`COc1ccc(S(C)(=O)=O)cc1C(=O)N[C@@H]1C2CCC(C2=C(C)C)[C@@H]1C(=O)Nc1ccc(F)c(C(F)(F)F)c1` (stereo partly drawn) [Example 208, (2S,3R)-N-[4-fluoro-3-(trifluoromethyl)phenyl]-3-(5-methanesulfonyl-2-methoxybenzamido)-7-(propan-2-ylidene)bicyclo[2.2.1] heptane-2-carboxamide] gave an EC50 of 2600 nM.
`CCN1CCN(S(=O)(=O)c2ccc(OC)c(C(=O)N[C@H]3[C@@H](C(=O)Nc4ccc(F)c(C(F)(F)F)c4)[C@H]4CC[C@@H]3/C4=C\C(F)(F)F)c2)CC1` [Example 209] gave an EC50 of 603 nM.
`COc1ccc(S(=O)(=O)N2CCN3C(=O)CCC3C2)cc1C(=O)N[C@H]1[C@@H](C(=O)Nc2ccc(F)c(C(F)(F)F)c2)[C@H]2CC[C@@H]1/C2=C\C(F)(F)F` (stereo partly drawn) [Example 210, (1R,2S,3R,4R,7Z)-N-[4-fluoro-3-(trifluoromethyl)phenyl]-3-[2-methoxy-5-({6-oxo-octabydropyrrolo [1,2-a]piperazin-2-yl}sulfonyl)benzamido]-7-(2,2,2-trifluoroethylidene) bicyclo[2.2.1] heptane-2-carboxamide] was tested, and the EC50 was 237 nM.
Compound `COc1ccc(S(=O)(=O)N2CCN(CCCO)CC2)cc1C(=O)N[C@H]1[C@@H](C(=O)Nc2ccc(F)c(C(F)(F)F)c2)[C@H]2CC[C@@H]1/C2=C\C(F)(F)F` [Example 211, (1R,2S,3R,4R,7Z)-N-[4-fluoro-3 (trifluoromethyl)phenyl]-3-(5-{[4-(3-hydroxypropyl)piperazin-1-yl]sulfonyl}-2-methoxybenzamido)-7-(2,2,2-trifluoroethylidene) bicyclo[2.2.1] heptane-2-carboxamide] has an EC50 of 551 nM.
`COc1ccc(S(=O)(=O)N2CCN[C@H](CO)C2)cc1C(=O)N[C@H]1[C@@H](C(=O)Nc2ccc(F)c(C(F)(F)F)c2)[C@H]2CC[C@@H]1/C2=C\C(F)(F)F` [Example 212, (1R,2S,3R,4R,7Z)-N-[4-fluoro-3-(trifluoromethyl)phenyl]-3-(5-{[(3S)-3-(hydroxymethyl)piperazin-1-yl]sulfonyl}-2-methoxybenzamido)-7-(2,2,2-trifluoroethylidene) bicyclo[2.2.1] heptane-2-carboxamide] gave an EC50 of 589 nM.
`COc1ccc(S(=O)(=O)N2CCOC[C@@H]2CO)cc1C(=O)N[C@H]1[C@@H](C(=O)Nc2ccc(F)c(C(F)(F)F)c2)[C@H]2CC[C@@H]1/C2=C\C(F)(F)F` [Example 213, (1R,2S,3R,4R,7Z)-N-[4-fluoro-3-(trifluoromethyl)phenyl]-3-(5-{[(3S)-3-(hydroxymethyl)morpholin-4-yl]sulfonyl}-2-methoxybenzamido)-7-(2,2,2-trifluoroethylidene) bicyclo[2.2.1] heptane-2-carboxamide] showed an EC50 of 331 nM.
Work on `COc1ccc(S(=O)(=O)N2CC3CCC(C2)O3)cc1C(=O)N[C@H]1[C@@H](C(=O)Nc2ccc(F)c(C(F)(F)F)c2)[C@H]2CC[C@@H]1/C2=C\C(F)(F)F` [Example 214, (1R,2S,3R,4R,7Z)-N-[4-fluoro-3-(trifluoromethyl)phenyl]-3-(2-methoxy-5-{8-oxa-3-azabicyclo[3.2.1]octane-3-sulfonyl}benzamido)-7-(2,2,2-trifluoroethylidene) bicyclo[2.2.1] heptane-2-carboxamide] yielded an EC50 of 272 nM.
